Results: patent US20250313559A1 (Bayer Aktiengesellschaft, priority 2024, published 2025)
Read-outs that look alike come from different tables or passages of the source.

Tested on: patients with heart failure and a left ventricular ejection fraction ≥40%
[1] = No SGLT2i Use at baseline, n = 2,610
[2] = SGLT2i Use at baseline, n = 393

CCOc1ncc(C)c2c1[C@H](c1ccc(C#N)cc1OC)C(C(N)=O)=C(C)N2 [finerenone, (4S)-4-(4-cyano-2-methoxyphenyl)-5-ethoxy-2,8-dimethyl-1,4-dihydro-1,6-naphthyridine-3-carboxamide]
Absolute risk reduction, primary outcome (HFimpEF (history of LVEF<40%)): 9.2 per 100 py
Absolute risk reduction, primary outcome (LVEF consistently 40% (no HFimpEF)): 2.5 per 100 py
All-cause death, HR (95% CI) finerenone vs placebo (No SGLT2i Use at baseline): 0.94 (0.82, 1.07)
Renal composite endpoint, HR (95% CI) finerenone vs placebo (No SGLT2i Use at baseline): 1.43 (0.98, 2.08)
Total worsening HF events, RR (95% CI) finerenone vs placebo (No SGLT2i Use at baseline): 0.83 (0.71, 0.97)
Renal composite endpoint, Rate (per 100 py) [1]: 0.8 per 100 py
Total worsening HF events, Rate (per 100 py) [1]: 13.0 per 100 py
All-cause death, HR (95% CI) finerenone vs placebo (SGLT2i Use at baseline): 0.90 (0.64, 1.27)
Renal composite endpoint, Rate (per 100 py) [2]: 1.3 per 100 py
Total worsening HF events, Events [2]: 194
Total worsening HF events, Rate (per 100 py) [2]: 22.0 per 100 py
Mean systolic blood pressure lower than in the placebo group (at 6 months): 3.4 mm Hg
All-cause death, event rate per 100 PY (bilirubin Tertile 2 0.5-0.6 mg/dL, finerenone N = 970): 6.4 per 100 PY
All-cause death, event rate per 100 PY (bilirubin Tertile 3 ≥0.7 mg/dL, finerenone N = 1,009): 6.6 per 100 PY
Hyperkalemia leading to Hospitalization - no. (both, human, in vivo): 24
Number of subjects with a treatment-emergent SAE: Acute kidney injury (both, human, in vivo): 54
Number of subjects with a treatment-emergent SAE: Anaemia (both, human, in vivo): 34
Number of subjects with a treatment-emergent SAE: Angina pectoris (both, human, in vivo): 17
Number of subjects with a treatment-emergent SAE: Angina unstable (both, human, in vivo): 38
Number of subjects with a treatment-emergent SAE: Atrial fibrillation (both, human, in vivo): 77
Number of subjects with a treatment-emergent SAE: Cardiac failure (both, human, in vivo): 18
Number of subjects with a treatment-emergent SAE: Cellulitis (both, human, in vivo): 17
Number of subjects with a treatment-emergent SAE: Chest pain (both, human, in vivo): 23
Number of subjects with a treatment-emergent SAE: Chronic obstructive pulmonary disease (both, human, in vivo): 18
Number of subjects with a treatment-emergent SAE: Fall (both, human, in vivo): 15
Number of subjects with a treatment-emergent SAE: Femur fracture (both, human, in vivo): 15
Number of subjects with a treatment-emergent SAE: Gastrointestinal haemorrhage (both, human, in vivo): 17
Number of subjects with a treatment-emergent SAE: Hyperkalemia (both, human, in vivo): 19
Number of subjects with a treatment-emergent SAE: Pneumonia (both, human, in vivo): 87
Number of subjects with a treatment-emergent SAE: Syncope (both, human, in vivo): 25
Number of subjects with treatment-emergent AE leading to treatment discontinuation: Asthenia (both, human, in vivo): 5
Number of subjects with treatment-emergent AE leading to treatment discontinuation: Diarrhoea (both, human, in vivo): 4
Number of subjects with treatment-emergent AE leading to treatment discontinuation: Dyspnoea (both, human, in vivo): 3
Number of subjects with treatment-emergent AE leading to treatment discontinuation: Hyperkalaemia (both, human, in vivo): 12
Number of subjects with treatment-emergent AE leading to treatment discontinuation: Hypotension (both, human, in vivo): 3
Number of subjects with treatment-emergent AE leading to treatment discontinuation: Nausea (both, human, in vivo): 3
Number of subjects with treatment-emergent AE leading to treatment discontinuation: Renal impairment (both, human, in vivo): 5
Proportion of patients experiencing 15% decline in eGFR (both, human, in vivo): 20.6%
Subjects with a treatment-emergent SAE (%): Acute kidney injury (both, human, in vivo): 1.8%
Subjects with a treatment-emergent SAE (%): Anaemia (both, human, in vivo): 1.1%
Subjects with a treatment-emergent SAE (%): Angina pectoris (both, human, in vivo): 0.6%
Subjects with a treatment-emergent SAE (%): Angina unstable (both, human, in vivo): 1.3%
Subjects with a treatment-emergent SAE (%): Atrial fibrillation (both, human, in vivo): 2.6%
Subjects with a treatment-emergent SAE (%): Cardiac failure (both, human, in vivo): 0.6%
Subjects with a treatment-emergent SAE (%): Cellulitis (both, human, in vivo): 0.6%
Subjects with a treatment-emergent SAE (%): Chest pain (both, human, in vivo): 0.8%
Subjects with a treatment-emergent SAE (%): Chronic obstructive pulmonary disease (both, human, in vivo): 0.6%
Subjects with a treatment-emergent SAE (%): Coronary artery disease (both, human, in vivo): 0.7%
Subjects with a treatment-emergent SAE (%): Fall (both, human, in vivo): 0.5%
Subjects with a treatment-emergent SAE (%): Femur fracture (both, human, in vivo): 0.5%
Subjects with a treatment-emergent SAE (%): Gastrointestinal haemorrhage (both, human, in vivo): 0.6%
Subjects with a treatment-emergent SAE (%): Hyperkalemia (both, human, in vivo): 0.6%
Subjects with a treatment-emergent SAE (%): Pneumonia (both, human, in vivo): 2.9%
Subjects with a treatment-emergent SAE (%): Syncope (both, human, in vivo): 0.8%
Subjects with treatment-emergent AE leading to treatment discontinuation (%): Asthenia (both, human, in vivo): (0.2%)
Subjects with treatment-emergent AE leading to treatment discontinuation (%): Diarrhoea (both, human, in vivo): (0.1%)
Subjects with treatment-emergent AE leading to treatment discontinuation (%): Dyspnoea (both, human, in vivo): (0.1%)
Subjects with treatment-emergent AE leading to treatment discontinuation (%): Hyperkalaemia (both, human, in vivo): (0.4%)
Subjects with treatment-emergent AE leading to treatment discontinuation (%): Hypotension (both, human, in vivo): (0.1%)
Subjects with treatment-emergent AE leading to treatment discontinuation (%): Nausea (both, human, in vivo): (0.1%)
Subjects with treatment-emergent AE leading to treatment discontinuation (%): Renal impairment (both, human, in vivo): (0.2%)
Systolic blood pressure <100 mm Hg - no. (both, human, in vivo): 538
Systolic BP, mean difference (by one month, compared with placebo): −2.8 mm Hg
Change in bilirubin during follow-up (early after randomization): sustained reduction in bilirubin
Change in KCCQ clinical summary score at 6, 9 and 12 mo (least squares mean change) (finerenone group): +8.0 ± 0.3
Death from any cause - % (finerenone group): (16.4%)
First worsening heart failure event or death from cardiovascular causes - % (finerenone group): (20.8%)
Improvement in NYHA class from baseline to 12 mo - % (finerenone group): (18.6%)
Kidney composite outcome - % (finerenone group): (2.5%)
Death from cardiovascular causes - % (finerenone group N = 3,003): (8.1%)
Number of subjects with AE of death or leading to death: COVID-19 (n = 2,993): 7
Number of subjects with AE of death or leading to death: COVID-19 pneumonia (n = 2,993): 9
Number of subjects with AE of death or leading to death: Cardiac arrest (n = 2,993): 12
Number of subjects with AE of death or leading to death: Cardiac failure (n = 2,993): 6
Number of subjects with AE of death or leading to death: Death (n = 2,993): 70
Number of subjects with AE of death or leading to death: Lung neoplasm malignant (n = 2,993): 7
Number of subjects with AE of death or leading to death: Pneumonia (n = 2,993): 27
Number of subjects with AE of death or leading to death: Respiratory failure (n = 2,993): 7
Number of subjects with AE of death or leading to death: Sepsis (n = 2,993): 19
Number of subjects with AE of death or leading to death: Septic shock (n = 2,993): 12
Number of subjects with AE of death or leading to death: Sudden cardiac death (n = 2,993): 18
Number of subjects with AE of death or leading to death: Sudden death (n = 2,993): 20
Number of subjects with a treatment-emergent SAE: COVID-19 (n = 2,993): 69
Number of subjects with a treatment-emergent SAE: COVID-19 pneumonia (n = 2,993): 28
Number of subjects with a treatment-emergent SAE: Death (n = 2,993): 29
Number of subjects with a treatment-emergent SAE: Sepsis (n = 2,993): 25
Number of subjects with a treatment-emergent SAE: Sudden death (n = 2,993): 16
Number of subjects with a treatment-emergent SAE: Urinary tract infection (n = 2,993): 29
Subjects with AE of death or leading to death (%): COVID-19 (n = 2,993): (0.2%)
Subjects with AE of death or leading to death (%): COVID-19 pneumonia (n = 2,993): (0.3%)
Subjects with AE of death or leading to death (%): Cardiac arrest (n = 2,993): (0.4%)
Subjects with AE of death or leading to death (%): Cardiac failure (n = 2,993): (0.2%)
Subjects with AE of death or leading to death (%): Death (n = 2,993): (2.3%)
Subjects with AE of death or leading to death (%): Lung neoplasm malignant (n = 2,993): (0.2%)
Subjects with AE of death or leading to death (%): Pneumonia (n = 2,993): (0.9%)
Subjects with AE of death or leading to death (%): Respiratory failure (n = 2,993): (0.2%)
Subjects with AE of death or leading to death (%): Sepsis (n = 2,993): (0.6%)
Subjects with AE of death or leading to death (%): Septic shock (n = 2,993): (0.4%)
Subjects with AE of death or leading to death (%): Sudden cardiac death (n = 2,993): (0.6%)
Subjects with AE of death or leading to death (%): Sudden death (n = 2,993): (0.7%)
Subjects with a treatment-emergent SAE (%): COVID-19 (n = 2,993): 2.3%
Subjects with a treatment-emergent SAE (%): COVID-19 pneumonia (n = 2,993): 0.9%
Subjects with a treatment-emergent SAE (%): Death (n = 2,993): 1.0%
Subjects with a treatment-emergent SAE (%): Sepsis (n = 2,993): 0.8%
Subjects with a treatment-emergent SAE (%): Sudden death (n = 2,993): 0.5%
Subjects with a treatment-emergent SAE (%): Urinary tract infection (n = 2,993): 1.0%
Hyperkalemia leading to Death - % (through the end of study): (0%)
Hyperkalemia leading to Death - no. (through the end of study): 0
Hyperkalemia leading to Death - % (treatment emergent): (0%)
Hyperkalemia leading to Death - no. (treatment emergent): 0
